Read-outs that look alike come from different tables or passages of the source.
How the values were obtained:
[1] = Pharmacokinetic test of Drug A in dogs, empty stomach vs after food intake; type: in vivo; conditions: oral
Source text: (§1) Other oral thrombin inhibitors under development than Drug A have been reported to show changes of bioavailability by food intake. […] The above two substances have different activities not only on thrombin but also on trypsin. […] In other words, the bioavailability of S18326 with higher activity on trypsin was more affected by food intake than S31922. […] Its activity on trypsin has not yet been reported, but since it is an ariginine (Arg) derivative like S18326, it is anticipated to have high activity on trypsin. […] The bioavailability of melagatran is affected by food intake because it has a charge in the intestinal pH, and so its membrane permeability is decreased [D. Gustafsson et al., The direct thrombin inhibitor melagatran and its oral prodrug H376/95: Intestinal absorption properties, biochemical and pharmacodynamic effects, Thrombosis Res., 101(2001) 171-181]. In order to improve the decreased membrane permeability, its prodrug was prepared and confirmed to have improved bioavailability and to prevent the bioavailability variance by food intake. However, melagatran is also one in the series of strong basic group, amidine, and thus has a strong inhibitory effect on trypsin.
Drug A is an orally active thrombin inhibitor, and is effective for preventing or treating the formation of thrombus. […]

trypsin [2] = biological target: T1, trypsin (Bos taurus, UniProt P00760); assay: Activity (IC50) on trypsin; type: biochemical; conditions: stated in words
T1 construct: gene PRSS1
T1 sequence (P00760 24-246): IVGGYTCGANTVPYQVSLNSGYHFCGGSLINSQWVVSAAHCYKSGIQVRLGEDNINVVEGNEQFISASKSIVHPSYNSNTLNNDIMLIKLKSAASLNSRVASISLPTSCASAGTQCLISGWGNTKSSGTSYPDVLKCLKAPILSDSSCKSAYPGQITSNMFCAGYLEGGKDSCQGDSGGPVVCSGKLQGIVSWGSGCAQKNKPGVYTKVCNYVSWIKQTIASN
Source text: as §1

[3] = Pharmacokinetic test of Drug A in rats, empty stomach vs after food intake; type: in vivo; conditions: oral, absorbed well on an empty stomach
Source text: as §1

thrombin = thrombin (Homo sapiens, UniProt P00734); conditions: cited from earlier work
[4] = dogs, oral; cited from earlier work
trypsin [5] = biological target: T1, trypsin; conditions: cited from earlier work
[6] = humans, oral; cited from earlier work
[7] = rats, oral; cited from earlier work

N=C(N)c1ccc(CNC(=O)[C@@H]2CCCN2C(=O)[C@H](NCC(=O)O)C(c2ccccc2)c2ccccc2)s1 [Drug A, (2S)-N-{5-[amino(imino)methyl]-2-thienyl}methyl-1-{(2R)-2-[(carboxymethyl)amino]-3,3-diphenylpropanoyl}-2-pyrrolidinecarboxamide]
Bioavailability after food intake relative to empty stomach ([1]; dog, in vivo, solution of Drug A, read-out: Bioavailability after food intake compared with on an empty stomach): 10%
Change of bioavailability when administered after food intake ([1]; absorbed well on an empty stomach): remarkably decreased
Activity on the digestive enzyme trypsin (trypsin [2]): high activity
Change of bioavailability when administered after food intake [3]: remarkably decreased

CC(=O)N[C@H](Cc1ccccc1)C(=O)N(CC(=O)N[C@@H](CCCN=C(N)N)B(O)O)C1CCCC1 [Example S-18326]
IC50 (thrombin): 0.0036 µM
Bioavailability after food intake [4]: 6%
Bioavailability on an empty stomach [4]: 27%
IC50 (trypsin [5]): 0.02 µM

NCCCCC(NC(=O)C1(C(=O)NCCc2ccccc2)CCCC1)B(O)O (stereo not drawn) [Example S-31922]
IC50 (thrombin): 0.043 µM
Bioavailability after food intake [4]: 22%
Bioavailability on an empty stomach [4]: 36%
IC50 (trypsin [5]): 0.34 µM

N=C(N)c1ccc(CNC(=O)[C@@H]2CCN2C(=O)[C@H](NCC(=O)O)C2CCCCC2)cc1 [melagatran]
Change of bioavailability after food intake [6]: remarkably decreased

R-Piq-Pro-Arg-H
Change of bioavailability after food intake [7]: remarkably decreased
Change of bioavailability after food intake [6]: remarkably decreased

Reference: patent US20040229821A1, “Orally administrable pharmaceutical compositions and methods for preventing food-drug interaction” (priority 2003, published 2004)
